# From patent US20230192648A1, “IMMUNOREGULATORY COMPOUNDS” (NIMML INSTITUTE, priority 2021, published 2023)
# Entries after “also recorded” stand apart in the source; their conditions may differ.
# How the values were obtained:
# [1] = test system: bm12 model of systemic inflammation; test: bm12 mouse model of systemic inflammation; type: in vivo
# [2] = test system: DSS model of acute inflammatory bowel disease; test: DSS model of acute inflammatory bowel disease; type: in vivo, mouse; settings: oral, 10 mg/kg once daily, relative to vehicle; for proportion of CD4+ T cells in the colonic lamina propria: FIG. 3A; for F4/80hi macrophages (colon): FIG. 3C
# Procedure: DSS model. Mice were given DSS in drinking water for seven days. At project initiation, mice were 8 weeks of age and began dosing 24 hours after being placed on DSS. Mice were weighed and scored daily for symptoms of disease (diarrhea, rectal bleeding, rectal inflammation, overall behavior). Treatments were prepared within a 0.5% methylcellulose (12-15 cP) solution. The dosage used was 10 mg/kg delivered once daily. Flow Cytometry. Colons were collected into RPMI/FBS buffer containing collagenase (300 U/mL) and DNase (50 U/mL) for digestion. Tissues were digested for 60 minutes under stirring at 37° C. Resultant cellular suspensions were filtered through 100 µm strainers, centrifuged (300 x g, 8 min), and washed in fresh RPMI. Following filtration of the resulting single cell suspensions, immune cells were purified by Percoll gradient of cell-containing 40% Percoll overlayed onto 70% Percoll solution. After centrifugation, interphase was collected and washed to obtain enriched colonic lamina propria cell fractions. Cells were labeled with mixtures of extracellular (CD45, CD3, CD4, CD8, CD25, F4/80, CD11b, MHCII) antibodies in a sequential live staining in 96-well plates. Data was acquired using a FACS Celesta flow cytometer with FACSDiva software.
# [3] = test system: influenza A (H1N1); test: Influenza A (H1N1) infection of mice, survival; type: in vivo, mouse; settings: 25 mg/kg orally daily, FIG. 4; for delay of first mortality: vehicle mortality beginning at day 6
# Procedure: Wild type C57BL/6 mice were anesthetized by isoflurane inhalation. Mice were infected with influenza A (H1N1) intranasally at a challenge titer of 2 x 10^4 TCID50/mL. Mice were treated daily with NIM-1001-2, NIM-1001-8, or NIM-1001-9 at a dose of 25 mg/kg orally via gavage. Mice were monitored daily.
# [4] = test system: IMQ-induced model of psoriasis; test: Imiquimod (IMQ) induced model of psoriasis; type: in vivo, mouse; settings: oral 20 mg/kg daily
# Procedure: IMQ-induced model. C57BL/6 mice were anesthetized, shaved, and briefly exposed to depilatory cream on the surface of the back. Mice were given three days to recover from the procedure prior to entry to the study. After 3 days, mice were challenged with approximately 60 mg of […] imiquimod cream daily by spreading cream over the shaved area. Oral treatment with vehicle or NIM-1001-8 (20 mg/kg) occurred daily.
# Analysis. Spleens were excised and crushed by microscope slides. Red blood cells were hypotonically lysed from the resultant suspension. Samples were filtered, washed and centrifuged prior to staining. Cells were labeled with mixtures of extracellular (CD45, CD3, CD4, CD8, CD25, F4/80, CD11b, MHCII) and intracellular (TNF, IL17) antibodies in a sequential live staining in 96-well plates in preparation for flow cytometry. Data was captured on a BD FACS Celesta and analyzed using FacsDiva.
# [5] = test system: experimental autoimmune encephalomyelitis; test: Mouse model of experimental autoimmune encephalomyelitis (adoptive transfer of MOG-primed splenocytes); type: in vivo; settings: oral 20 mg/kg from 7 days post-transfer
# Procedure: Mouse model. C57BL6 mice were challenged at 10- to 16-weeks of age with MOG immunization with complete Freund’s adjuvant. MOG emulsion was administered to the cervical region and the hind flank at 100 µL per site to each mouse. After 10 days, spleens were harvested. Isolated splenocytes were cultured in the presence of MOG, IL-12 and anti-interferon gamma for 3 days. Splenocytes were then washed and injected into recipient mice at approximately 20 million cells per mouse. Oral treatment with NIM-1001-8 (20 mg/kg) or vehicle was initiated at 7 days post-transfer. Mice were be scored (0-3) daily for disease activity (coordination, gait, paralysis).
# Flow Cytometry. Spinal cords were excised and digested with papain and DNase. Immune cells were purified by Percoll gradient. Cells were labeled with mixtures of extracellular (CD45, CD3, CD4, CD8, CD25) and intracellular (IL17) antibodies in a sequential live staining in 96-well plates in preparation for flow cytometry. Data was captured on a BD FACS Celesta and analyzed using FacsDiva.
# Histology. Sections of the spinal cord from the lumbar region were extracted and fixed in formalin. Samples were embedded in paraffin and sectioned. By immunohistochemistry, samples were stained for the presence of glial fibrillary acidic protein (GFAP). Slides were assessed microscopically and scored (0-3) for the intensity and frequency of GFAP positive cells. GFAP is a common protein marker for astrocytes in the central nervous system
# [6] = test system: MRL/lpr model of systemic lupus erythematosus; test: MRL/lpr genetic mouse model of SLE; type: in vivo; settings: daily orogastric gavage from 12 weeks of age
# Procedure: Mouse model. Female MRL/lpr mice were obtained at 8 weeks of age. Mice were followed for four weeks for the development of proteinuria. […] Treatment with NIM-1001-8, or vehicle control, were administered by orogastric gavage daily, beginning at 12 weeks of age, in a 0.5% methylcellulose suspension.
# (§1) Immunological analysis. Urine was collected for assay for protein content to test for kidney function. Spleens were excised, crushed and filtered to provide a cellular suspension. Red blood cells were lysed. Cells were labeled with mixtures of extracellular (CD45, CD3, CD4, CD8, CD25) and intracellular (FOXP3, IL17) antibodies in a sequential live staining in 96-well plates in preparation for flow cytometry. Data was captured on a BD FACS Celesta and analyzed using FacsDiva.
# [7] = test system: NOD model of Sjogren's syndrome; test: NOD mouse model of Sjogren's syndrome; type: in vivo; settings: relative to vehicle, FIG. 10
# Procedure: NOD model. Ten-week-old female NOD mice were treated with vehicle or NIM-1001-8 (2 or 50 mg/kg) daily by oral gavage for four weeks. After conclusion of the treatment period, submandibular glands were excised and fixed in formalin. Glands were processed and H&E-stained slides were prepared. Slides were scored by blinded reviewer, on a 0 to 4 composite scale encompassing level of inflammation and disease.
# [8] = test system: genetic model of Alzheimer's disease; test: Genetic mouse model of Alzheimer's disease; type: in vivo; settings: oral 10 mg/kg for eight weeks, relative to vehicle
# Procedure: Mouse model. Genetically modified mice that spontaneously develop cognitive impairment at 4 months of age and histological signs of disease at 6 months of age were randomized into the project at 24 weeks of age. Mice were orally treated with vehicle or NIM-1001-8 (10 mg/kg) for eight weeks. After eight weeks of treatment, mice were evaluated using a light-dark test to measure the time spent in the light relative to the dark. This is a measure of an anxiety response. Genetically modified mice were compared to age-matched wild-type mice (negative control).
# Flow Cytometry. Brains were collected into RPMI/FBS buffer containing collagenase (300 U/mL) and DNase (50 U/mL) for digestion. Tissues were digested for 30 minutes under stirring at 37° C. Resultant cellular suspensions were filtered through 100 µm strainers, centrifuged (300 x g, 8 min), and washed in fresh RPMI. Following filtration of the resulting single cell suspensions, immune cells were purified by Percoll gradient of cell-containing 40% Percoll overlayed onto 70% Percoll solution. After centrifugation, interphase was collected and washed to obtain enriched immune cell fractions. Cells were labeled with mixtures of extracellular (CD45, CD3, CD4, CD8, CD11b, Gr1) and intracellular (IL17) antibodies in a sequential live staining in 96-well plates. Data was acquired using a FACS Celesta flow cytometer with FACSDiva software.
# [9] = test system: MPTP induced model of Parkinson's disease; test: MPTP induced mouse model of Parkinson's disease; type: in vivo; settings: oral 25 mg/kg once daily
# Procedure: Mouse model. Mice were administered intraperitoneal injections of 1-methyl-4-phenyl-1,2,3,6-tetrahydropyridine (MPTP) and probenecid three times weekly for 4 weeks. In the second week of injections, oral treatment with vehicle or NIM-1001-8 (25 mg/kg) was initiated once daily. After four weeks of injections, motor control was assessed by counting the number of step errors during a challenging beam test. Mice challenged with MPTP were compared to mice challenged with a sham injection (negative control).
# as §1, with “Flow Cytometry.” for “Immunological analysis. Urine was collected for assay for protein content to test for kidney function.”, “(IL21,” for “(FOXP3,”
# [10] = oral gavage daily, 20 mg/kg/day, relative to vehicle; FIG. 2A
# [11] = oral gavage daily, 20 mg/kg/day, relative to vehicle, FIG. 2C
# [12] = oral gavage daily, 20 mg/kg/day, relative to vehicle; FIG. 2C
smiles,measurement,setting,value
CCOC(=O)/C=C/c1cncc(Nc2cc(C(=O)OC)cc(Cl)n2)c1 [NIM-1001-10],spleen size in proportion to overall body weight,[1]; [10],reduced the normalized spleen size at a lesser degree
CCc1noc(/C=C/c2cncc(Nc3cc(-c4nc(C)no4)cc(Cl)n3)c2)n1 [NIM-1001-11],proportion of CD4+ T cells in the colonic lamina propria,[2],reduced
same,F4/80hi macrophages (colon),[2],significant reductions
CCOC(=O)/C=C/c1cncc(Oc2cc(C(=O)NC)cc(Cl)n2)c1C [NIM-1001-4],proportion of CD25+ FOXP3+ regulatory T cells in the spleen,[1]; [11],significantly increased; also recorded: largest magnitude of increase
same,spleen size in proportion to overall body weight,[1]; [10],reduced the normalized spleen size at a lesser degree
CCc1noc(/C=C/c2cncc(Oc3cc(-c4nc(C)no4)cc(Cl)n3)c2C)n1 [NIM-1001-2],spleen size in proportion to overall body weight,[1]; [10],significantly reduced
same,proportion of CD25+ FOXP3+ regulatory T cells in the spleen,[1]; [12],significantly increased
same,survival at day 10 (fraction of group),[3]; vehicle 25% survival by day 10,two-thirds
same,delay of first mortality,[3],one day
same,proportion of CD4+ T cells in the colonic lamina propria,[2],reduced
CCNC(=O)/C=C/c1cncc(Oc2nccc(C(=O)NC)n2)c1C [NIM-1001-9],spleen size in proportion to overall body weight,[1]; [10],significantly reduced
same,proportion of CD25+ FOXP3+ regulatory T cells in the spleen,[1]; [12],significantly increased
same,survival at day 10 (fraction of group),[3]; vehicle 25% survival by day 10,two-thirds
same,delay of first mortality,[3],one day
CCNC(=O)/C=C/c1cncc(Nc2nccc(C(=O)NC)n2)c1 [NIM-1001-12],spleen size in proportion to overall body weight,[1]; [10],significantly reduced
same,proportion of CD25+ FOXP3+ regulatory T cells in the spleen,[1]; [12],significantly increased
same,proportion of CD4+ T cells in the colonic lamina propria,[2],reduced
same,F4/80hi macrophages (colon),[2],significant reductions
"CCOC(=O)/C=C/c1cncc(Oc2cc(C(=O)OC)cc(Cl)n2)c1C [NIM-1001-8, methyl (E)-2-chloro-6-((5-(3-ethoxy-3-oxoprop-1-en-1-yl)-4-methylpyridin-3-yl)oxy)isonicotinate]",proportion of TNF+ CD4+ T cells in the spleen,"[4]; relative to vehicle, FIG. 9A",significantly reduced
same,proportion of IL17+ CD4+ T cells in the spleen,"[4]; relative to vehicle, FIG. 9B",significantly reduced
same,proportion of F4/80hi inflammatory macrophages,[4]; FIG. 9C,decreased
same,overall disease severity (score 0-3),[5]; FIG. 5A,amelioration
same,proportion of CD4+ IL17+ T cells in the spinal cord,[5]; FIG. 5B,decreased
same,GFAP positive staining in the spinal cord,[5]; FIG. 5C,decreased
same,proportion of CD25+ FOXP3+ regulatory T cells in the spleen,[1]; [11],significantly increased; also recorded: largest magnitude of increase
same,spleen size in proportion to overall body weight,[1]; [10],significantly reduced
same,"urine protein levels, reduction","[6]; relative to vehicle, FIG. 6A",more than two-fold
same,splenic CD25+ FOXP3+ regulatory T cells,"[6]; P < 0.05, FIG. 6B",significant increase
same,splenic CD4+ IL17+ cells,"[6]; P < 0.05, FIG. 6C",significant decrease
same,histological severity of disease in the submandibular glands (score 0 to 4),[7]; 2 mg/kg daily by oral gavage for four weeks,significantly reduced
same,histological severity of disease in the submandibular glands (score 0 to 4),[7]; 50 mg/kg daily by oral gavage for four weeks,significantly reduced
same,time spent in the light (light-dark test),"[8]; FIG. 7A, 10 mg/kg",significantly increased; also recorded: restored the time to equal that of the negative control group
same,proportion of neutrophils in the brain,[8]; FIG. 7B,decreased
same,proportion of CD4+ IL17+ T cells in the brain,[8]; FIG. 7C,decreased
same,number of step errors during a challenging beam test,"[9]; relative to vehicle, FIG. 8A",significantly reduced; also recorded: near complete abrogation of MPTP effects
same,CD4+ IL21+ T cells within the spleen,"[9]; P < 0.05, FIG. 8B",significant reductions
same,CD4+ IL17+ T cells within the spleen,"[9]; P < 0.05, FIG. 8C",significant reductions
same,survival at day 10,[3]; vehicle 25% survival by day 10,83%
same,delay of first mortality,[3],two days
same,proportion of CD4+ T cells in the colonic lamina propria,[2],reduced
same,F4/80hi macrophages (colon),[2],significant reductions
